This is an account of results in patent publication EP3623369A1, “NOVEL MORPHOLINYL AMINE COMPOUNDS FOR THE TREATMENT OF AUTOIMMUNE DISEASE” (F. Hoffmann-La Roche AG, priority 2018, dated 2020).

The assay has as its target T1, hTLR7 (Homo sapiens, UniProt Q9NYK1).
T1 sequence (Q9NYK1 27-1049): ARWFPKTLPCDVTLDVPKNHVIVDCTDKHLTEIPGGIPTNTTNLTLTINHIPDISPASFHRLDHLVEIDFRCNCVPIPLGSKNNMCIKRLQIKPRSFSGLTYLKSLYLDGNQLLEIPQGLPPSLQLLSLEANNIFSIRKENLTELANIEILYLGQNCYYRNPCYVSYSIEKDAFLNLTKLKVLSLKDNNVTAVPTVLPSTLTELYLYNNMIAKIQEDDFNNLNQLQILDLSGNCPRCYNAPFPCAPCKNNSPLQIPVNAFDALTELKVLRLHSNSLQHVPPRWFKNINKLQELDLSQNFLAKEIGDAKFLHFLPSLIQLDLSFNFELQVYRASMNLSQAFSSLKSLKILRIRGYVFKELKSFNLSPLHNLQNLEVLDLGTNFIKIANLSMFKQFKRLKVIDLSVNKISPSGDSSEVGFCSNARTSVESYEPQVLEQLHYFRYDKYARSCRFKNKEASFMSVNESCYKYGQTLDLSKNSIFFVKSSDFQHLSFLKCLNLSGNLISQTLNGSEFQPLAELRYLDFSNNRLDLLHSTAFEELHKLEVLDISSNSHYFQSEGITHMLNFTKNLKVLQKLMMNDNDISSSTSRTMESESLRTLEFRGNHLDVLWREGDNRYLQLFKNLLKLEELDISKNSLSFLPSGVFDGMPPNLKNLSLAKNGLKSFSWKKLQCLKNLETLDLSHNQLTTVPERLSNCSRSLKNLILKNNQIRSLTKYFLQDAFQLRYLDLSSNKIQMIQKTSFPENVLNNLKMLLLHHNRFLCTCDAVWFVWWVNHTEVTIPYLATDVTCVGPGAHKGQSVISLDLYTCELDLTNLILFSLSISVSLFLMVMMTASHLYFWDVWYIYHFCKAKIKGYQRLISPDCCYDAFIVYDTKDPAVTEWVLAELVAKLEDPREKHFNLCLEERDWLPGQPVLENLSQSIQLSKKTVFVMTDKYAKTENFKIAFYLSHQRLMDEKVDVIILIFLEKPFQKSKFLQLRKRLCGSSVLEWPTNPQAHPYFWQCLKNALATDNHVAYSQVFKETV
The assay can be described thus: HEK293-Blue-hTLR-7 cells assay (SEAP reporter, R848 stimulation). Type of assay: cell-based. The note with it: HEK293-Blue-hTLR7 cells, R848, 20 hrs; 0.003 is the lowest tested concentration; read-out: HEK/hTLR7 IC50. The method in brief:
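HEK293-Blue-hTLR7 cells carry an NF-κB/AP-1-driven SEAP reporter and were stimulated with R848 in the presence of serially diluted compound (1% DMSO final) for 20 hrs at 37 °C. Supernatant SEAP was measured with QUANTI-Blue after 2 hrs at 37 °C, reading absorbance at 620∼655 nm.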
Turning to `C[C@@H]1CN(c2ccc(C#N)c3ncccc23)C[C@H](CN2Cc3ccc(N4CCNC[C@@H]4CO)cc3C2)O1` [Example 82, 5-[(2S,6R)-2-[[5-[(2R)-2-(hydroxymethyl)piperazin-1-yl]isoindolin-2-yl]methyl]-6-methyl-morpholin-4-yl]quinoline-8-carbonitrile], the IC50 was found to be 47 nM. As to `C[C@@H]1CN(c2ccc(C#N)c3ncccc23)C[C@H](CN2Cc3ccc(N4CC5COCC(C4)N5)cc3C2)O1` [Example 72, 5-[(2R,6S)-2-methyl-6-[[5-(3-oxa-7,9-diazabicyclo[3.3.1]nonan-7-yl)isoindolin-2-yl]methyl]morpholin-4-yl]quinoline-8-carbonitrile], the IC50 worked out at 45 nM.

Turning to `C[C@@H]1CN(c2ccc(C#N)c3ncccc23)C[C@H](CN2Cc3ccc(N4CCNC[C@H]4CO)cc3C2)O1` [Example 83, 5-[(2S,6R)-2-[[5-[(2S)-2-(hydroxymethyl)piperazin-1-yl]isoindolin-2-yl]methyl]-6-methyl-morpholin-4-yl]quinoline-8-carbonitrile], the IC50 was determined as 34 nM. As for `C[C@@H]1CN(c2ccc(C#N)c3ncccc23)C[C@H](CN2Cc3ccc(N4CCNCC4C(F)F)cc3C2)O1` (stereo partly drawn) [Example 76, 5-[(2S,6R)-2-[[5-[2-(difluoromethyl)piperazin-1-yl]isoindolin-2-yl]methyl]-6-methyl-morpholin-4-yl]quinoline-8-carbonitrile], the IC50 is 9 nM. For `C[C@@H]1CN(c2ccc(C#N)c3nccnc23)C[C@H](CN2Cc3ccc(N4CCN[C@@H](C)C4)cc3C2)O1` [Example 66, 8-[(2R,6S)-2-methyl-6-[[5-[(3S)-3-methylpiperazin-1-yl]isoindolin-2-yl]methyl]morpholin-4-yl]quinoxaline-5-carbonitrile], the IC50 was 6 nM. Take `C[C@@H]1CN(c2ccc(C#N)n3nccc23)C[C@H](CN2Cc3ccc(OCCN(C)C)cc3C2)O1` [Example 28, 4-[(2S,6R)-2-[[5-[2-(dimethylamino)ethoxy]isoindolin-2-yl]methyl]-6-methyl-morpholin-4-yl]pyrazolo[1,5-a]pyridine-7-carbonitrile]: the IC50 is 227 nM.

For `C[C@@H]1CN(c2ccc(C#N)n3ncc(F)c23)C[C@H](CN2CCc3cc(N4CCNCC4)ccc3C2)O1` [Example 14, 3-fluoro-4-[(2R,6S)-2-methyl-6-[(6-piperazin-1-yl-3,4-dihydro-1H-isoquinolin-2-yl)methyl]morpholin-4-yl]pyrazolo[1,5-a]pyridine-7-carbonitrile], the IC50 was 21 nM. On to `C[C@@H]1CN(c2ccc(C#N)c3ncccc23)C[C@H](CN2Cc3ccc(N4CCNCC4)cc3C2)O1` [Example 21, 5-[(2R,6S)-2-methyl-6-[(5-piperazin-1-ylisoindolin-2-yl)methyl]morpholin-4-yl]quinoline-8-carbonitrile], for which the IC50 was 9 nM. On to `C[C@@H]1CN(c2ccc(C#N)n3nccc23)C[C@H](CN2Cc3ccncc3C2)O1` [Example R2, 4-[(2S,6R)-2-(1,3-dihydropyrrolo[3,4-c]pyridin-2-ylmethy1)-6-methyl-morpholin-4-yl]pyrazolo[1,5-a]pyridine-7-carbonitrile, reference compound], for which the IC50 was determined as 722 nM. On to `C[C@@H]1CN(c2ccc(C#N)c3ncccc23)C[C@H](CN2Cc3ccc(CN4CCCCC4)cc3C2)O1` [Example 74, 5-[(2R,6S)-2-methyl-6-[[5-(1-piperidylmethyl)isoindolin-2-yl]methyl]morpholin-4-yl]quinoline-8-carbonitrile], for which the IC50 was determined as 59 nM. As to `C[C@@H]1CN(c2ccc(C#N)c3nccnc23)C[C@H](CN2Cc3ccc(N4CCNCC4)cc3C2)O1` [Example 12, 8-[(2R,6S)-2-methyl-6-[(5-piperazin-1-ylisoindolin-2-yl)methyl]morpholin-4-yl]quinoxaline-5-carbonitrile], the IC50 was less than 3 nM. Next, `CC1CNCCN1c1ccc2c(c1)CN(C[C@H]1CN(c3ccc(C#N)c4ncccc34)C[C@@H](C)O1)C2` (stereo partly drawn) [Example 78, 5-[(2R,6S)-2-methyl-6-[[5-(2-methylpiperazin-1-yl)isoindolin-2-yl]methyl]morpholin-4-yl] quinoline-8-carbonitrile]: 11 nM; `C[C@@H]1CN(c2ccc(C#N)c3ncccc23)C[C@H](CNCc2ccccc2)O1` [ER-886509, reference compound]: 88 nM. Consider `C[C@@H]1CN(c2ccc(C#N)c3ncsc23)C[C@H](CN2CCc3cc(N4CCNCC4)ccc3C2)O1` [Example 24, 7-[(2R,6S)-2-methyl-6-[(6-piperazin-1-yl-3,4-dihydro-1H-isoquinolin-2-yl)methyl]morpholin-4-yl]-1,3-benzothiazole-4-carbonitrile], for which the IC50 was 9 nM. In the case of `C[C@@H]1CN(c2ccc3c(c2)CN(C[C@H]2CN(c4ccc(C#N)c5ncccc45)C[C@@H](C)O2)C3)C[C@H](C)N1` [Example 71, 5-[(2R,6S)-2-methyl-6-[[5-[(3R,5S)-3,5-dimethylpiperazin-1-yl]isoindolin-2-yl]methyl]morpholin-4-yl]quinoline-8-carbonitrile], the IC50 was 108 nM. As for `C[C@@H]1CN(c2ccc(C#N)c3ncccc23)C[C@H](CN2Cc3ccc(N4CC5(CNC5)C4)cc3C2)O1` [Example 47, 5-[(2S,6R)-2-[[5-(2,6-diazaspiro[3.3]heptan-2-yl)isoindolin-2-yl]methyl]-6-methyl-morpholin-4-yl]quinoline-8-carbonitrile], the IC50 worked out at 84 nM. Next, `C[C@@H]1CN(c2ccc(C#N)c3nccnc23)C[C@H](CNCc2ccc(N3CCNCC3)cc2)O1` [Example 84, 8-[(2R,6S)-2-methyl-6-[[(4-piperazin-1-ylphenyl)methylamino]methyl]morpholin-4-yl]quinoxaline-5-carbonitrile]: 12 nM; `CC1c2ccc(N3CCNCC3)cc2CN1C[C@H]1CN(c2ccc(C#N)c3ncccc23)C[C@@H](C)O1` (stereo partly drawn) [Example 48, 5-[(2R,6S)-2-methyl-6-[(1-methyl-5-piperazin-1-yl-isoindolin-2-yl)methyl]morpholin-4-yl]quinoline-8-carbonitrile]: 238 nM.

With `C[C@@H]1CN(c2ccc(C#N)n3nccc23)C[C@H](CN2Cc3ccc(N4CCN(C)CC4)cc3C2)O1` [Example 17, 4-[(2R,6S)-2-methyl-6-[[5-(4-methylpiperazin-1-yl)isoindolin-2-yl]methyl]morpholin-4-yl]pyrazolo[1,5-a]pyridine-7-carbonitrile], the IC50 is 65 nM.
